From patent publication US20230039836A1, “AROMATIC SULPHONAMIDES DERIVATIVES THAT INHIBITS PDI A3, THEIR SYNTHESIS AND USE” (Uniwersytet Jagiellonski, priority 2020, published 2023)

Key:
[1] = tested on: Lewis Lung Carcinoma (LLC); assay: Murine model of Lewis Lung Carcinoma; type: in vivo, mice; conditions: in vivo, FIG. 5; for Effect on animal weight: no evident toxicity
Experimental: To confirm anticancer activity of selected compounds of invention, PDI A1-inhibitors in vivo, selected compounds of invention were tested in the murine model of Lewis Lung Carcinoma (LLC). The Lewis Lung Carcinoma (LLC) cell line was obtained from the ATCC collection and was cultured in a humidified atmosphere of 5% CO2 at 37° using Dulbecco’s modified Eagle’s medium (DMEM) that contained 10% bovine serum (Sigma). Female (6-8 weeks old) C57BL/6 mice (purchased from Envigo RMS. BV., Nederland) were acclimated for one week and were fed with animal chow and water ad libitum. The C57BL/6 mice were injected s.c. with 0.5 × 10^5 LLC cells per mice in 100 µL PBS. Compounds were dissolved in DMSO and then 0.9% NaCl (DMSO final concentration 1%) were added. In each treatment group, i.p. injections of 100 µl compound were started on 1 day after tumor inoculation. Control animals injected with equal volume of 0.9% NaCl with 1% DMSO administered in the same schedule as other groups. Tumor larger radius (a) and smaller radius (b) were measured by calipers. The tumor volume (Tv) was calculated according the following formulaTv = V=4 • ab2/3. The mice in control group were sacrificed 17 days after tumor establishment. Tumor tissues were dissected, weighed and frozen in OCT compound.

[2] = tested on: MCF-7 (human breast adenocarcinoma, estrogen-positive); assay: MTT antiproliferative assay, 48 h; type: cell-based; conditions: Homo sapiens, MCF7, 48-hour exposition, read-out: Cytotoxicity, IC50, µM MCF-7
Experimental: (§1) About 2000-4000 cells per well (depending on line nature) were placed in 96-well plates and after 24 h compounds were added to the wells. Untreated cells were used as a control. The plates were incubated for 48 h, 37° C., 5% CO2. The number of surviving cells was determined using 3-(4,5-dimethylthiazol-2-yl)-2,5-diphenyltetrazolinium bromide (MTT). MTT-test: after incubating culture medium was removed and 200 µL fresh medium with 20 µL MTT (2 mg/mL in HBSS) was added in each well of the plate. After incubation (3 hr., 37° C., 5% CO2), the medium with MTT was removed and 200 µL DMSO were added at once to each sample. The samples were tested at 540 nm on Thermo Scientific Multiskan EX microplate photometer. The half-maximal inhibitory concentration (IC50) of each compound was calculated using Graph Pad Prism® 3.0.

[3] = tested on: MDA-MB-231 (human mammary breast adenocarcinoma); assay: MTT antiproliferative assay, 48 h; type: cell-based; conditions: Homo sapiens, MDA-MB-231, 48-hour exposition, read-out: Cytotoxicity, IC50, µM MDA-MB-231
Experimental: as §1

[4] = tested on: HT-1080 (human fibrosarcoma); assay: MTT antiproliferative assay, 48 h; type: cell-based; conditions: 48-hour exposition, read-out: Cytotoxicity, IC50, µM HT-1080
Experimental: as §1

[5] = tested on: Caco-2 (human colon adenocarcinoma); assay: MTT antiproliferative assay, 48 h; type: cell-based; conditions: Homo sapiens, Caco-2, 48-hour exposition, read-out: Cytotoxicity, IC50, µM CaCo-2
Experimental: as §1

PDI A1 = target: T1, PDI A1 (Homo sapiens, UniProt P07237); assay: Insulin turbidometric assay, inhibition of PDI A1; type: biochemical; conditions: insulin reduction, turbidity at 650 nm, 60 min incubation at 37° C.; read-out: Inhibition of PDI A1 (EC 50)
T1 construct: purchased Mybiosource; host or cells: E. coli
Experimental: The inhibitory effects compounds of invention on activity of PDI A1 was assess based on the insulin turbidometric assay. Enzymatic activity of PDIA1 was confirmed by measuring the turbidity increase at 650 nm due to insulin reduction. The assay mixture was prepared by addition 10 ug/ml PDIA1 (E.coli recombinant protein; Mybiosource), 0.1 mM phosphate buffer (pH7.6), 1 mM EDTA, 0.087 mM DTT and with or without tested compound and was incubated for 60 min, at 37° C. Reaction was started by addition insulin and DTT. Final concentration of insulin and DTT in assay mixture was 0.15 mM and 0.174 mM, respectively. Turbidity was detected at 650 nm against reference samples without PDI A1s. The measurements were performed at 650 nm using 120-s recordings.

T1 sequence (P07237 18-508, species assumed): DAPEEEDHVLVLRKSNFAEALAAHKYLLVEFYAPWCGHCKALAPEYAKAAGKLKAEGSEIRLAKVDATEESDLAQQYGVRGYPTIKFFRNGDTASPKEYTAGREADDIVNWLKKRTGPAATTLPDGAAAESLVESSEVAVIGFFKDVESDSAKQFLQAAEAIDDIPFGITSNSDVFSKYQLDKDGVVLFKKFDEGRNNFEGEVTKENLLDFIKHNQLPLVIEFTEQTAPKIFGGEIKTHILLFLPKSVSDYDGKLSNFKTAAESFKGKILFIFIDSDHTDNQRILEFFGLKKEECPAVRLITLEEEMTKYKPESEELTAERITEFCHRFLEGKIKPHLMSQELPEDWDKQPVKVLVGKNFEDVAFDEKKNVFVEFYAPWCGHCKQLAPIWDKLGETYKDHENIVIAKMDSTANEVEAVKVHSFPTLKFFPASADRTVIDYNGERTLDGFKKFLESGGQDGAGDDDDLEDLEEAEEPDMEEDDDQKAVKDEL

With `COC(=O)C1CN1S(=O)(=O)c1ccc2cc(C)ccc2c1` (stereo not shown) [Compound C-3329, Methyl 1-[(6-methyl-2-naphthyl)sulfonyl]aziridine-2-carboxylate] the “Effect on tumour volume” value [1] was “diminished tumour volume” and the “Effect on animal weight” value [1] was “did not modified animal weight”.
Molecule `CC(=O)C1CN1S(=O)(=O)c1ccc(C)cc1` (stereo not shown) [Compound C-3263, 1-[1-(p-Tolylsulfonyl)aziridin-2-yl]ethanone] has an IC50 [2] of 17 ± 0.2 µM, an IC50 [3] of 9.1 ± 0.5 µM and an IC50 [4] of 7.6 ± 0.2 µM. The IC50 [5] was 29 ± 0.8 µM and the EC50 (PDI A1) was 140000 nM.
`CN(C)C(=O)C1CN1S(=O)(=O)c1ccc(N(C)C)c2ccccc12` (stereo not shown) [Compound C-3385, 1-[[4-(Dimethylamino)-1-naphthyl]sulfonyl] -N,N-dimethylaziridine-2-carboxamide] was tested, and the EC50 (PDI A1) was 700 nM.
In the case of `COC(=O)C1CN1S(=O)(=O)c1ccc2cc(OC)ccc2c1` (stereo not shown) [Compound C-3327, Methyl 1-[(6-methoxy-2-naphthyl)sulfonyl]aziridine-2-carboxylate], the IC50 [5] is reported as 150 ± 10 µM.
For `NC(=O)C1CN1S(=O)(=O)c1ccc(C(F)(F)F)cc1` (stereo not shown) [Compound C-3324, 1-[4-(Trifluoromethyl)phenyl] sulfonylaziridine-2-carboxamide], the IC50 [2] was 156 ± 9 µM, the IC50 [3] was 102 ± 12 µM and the IC50 [4] was 510 ± 3 µM. For the same molecule, the IC50 [5] was 27 ± 3 µM.
In the case of `COC(=O)C1CN1S(=O)(=O)c1ccc(C(F)(F)F)cc1` (stereo not shown) [Compound C-3256, Methyl 1-[4-(trifluoromethyl)phenyl]sulfonylaziridine-2-carboxylate], the EC50 (PDI A1) is reported as 500 nM.
In the case of `CN(C)C(=O)C1CN1S(=O)(=O)c1ccc(C(C)(C)C)cc1` (stereo not shown) [Compound C-3594, 1-(4-tert-Butylphenyl)sulfonyl-N,N-dimethyl-aziridine-2-carboxamide], the EC50 (PDI A1) is reported as 26000 nM.
`CC(C)(C)c1ccc(S(=O)(=O)N2CC2C(N)=O)cc1` (stereo not shown) [Compound C-3591, 1-(4-tert-Butylphenyl)sulfonylaziridine-2-carboxamide] showed an EC50 (PDI A1) of 11000 nM.
`CCCCc1ccc(S(=O)(=O)N2CC2C(=O)N(C)C)cc1` (stereo not shown) [Compound C-3362, 1-(4-Butylphenyl)sulfonyl-N,N-dimethyl-aziridine-2-carboxamide] gave an EC50 (PDI A1) of 500 nM.
Molecule `COC(=O)C1CN1S(=O)(=O)c1ccccc1C` (stereo not shown) [Compound C-3320, Methyl 1-(o-tolylsulfonyl)aziridine-2-carboxylate] has an IC50 [3] of 380 ± 15 µM.
`COC(=O)C1CN1S(=O)(=O)c1cccnc1` (stereo not shown) [Compound C-3559, Methyl 1-(3-pyridylsulfonyl)aziridine-2-carboxylate] was tested, and the IC50 [2] was 154 ± 25 µM, the IC50 [3] was 128 ± 8 µM and the IC50 [4] was 372 ± 23 µM. The IC50 [5] was 260 ± 55 µM and the EC50 (PDI A1) was 10600 nM.
Work on `CCCCOc1ccc(S(=O)(=O)N2CC2C(=O)OC)cc1` (stereo not shown) [Compound C-3271, Methyl 1-(4-butoxyphenyl)sulfonylaziridine-2-carboxylate] yielded an EC50 (PDI A1) of 1000 nM.
Work on `COC(=O)C1CN1S(=O)(=O)c1ccc2c(C=O)c(N(C)C)ccc2c1` (stereo not shown) [Compound C-3390, Methyl 1-[[6-(dimethylamino)-5-formyl-2-naphthyl]sulfonyl]aziridine-2-carboxylate] yielded an IC50 [2] of 20 ± 0.3 µM, an IC50 [3] of 18 ± 0.1 µM and an IC50 [4] of 7.9 ± 0.9 µM. The IC50 [5] was 11 ± 2 µM and the EC50 (PDI A1) was 600 nM.
For `CCCCCCCCCCCCc1ccc(S(=O)(=O)N2CC2C(=O)OC)cc1` (stereo not shown) [Compound C-3270, Methyl 1-(4-dodecylphenyl)sulfonylaziridine-2-carboxylate], the EC50 (PDI A1) was 800 nM.
Molecule `COC(=O)[C@@H]1CN1S(=O)(=O)c1cccc2cc(N(C)C)ccc12` (stereo partly drawn) [Compound C-3548, Methyl (2S)-1-[[6-(dimethylamino)-1-naphthyl]sulfonyl]aziridine-2-carboxylate] has an IC50 [2] of 37 ± 3 µM, an IC50 [3] of 57 ± 9 µM and an IC50 [4] of 9.2 ± 1 µM. The IC50 [5] was 45 ± 13 µM and the EC50 (PDI A1) was 6000 nM.
For `CCCCc1ccc(S(=O)(=O)N2CC2C(C)=O)cc1` (stereo not shown) [Compound C-3272, 1-[1-(4-Butylphenyl)sulfonylaziridin-2-yl] ethanone], the IC50 [2] was 26 ± 0.4 µM, the IC50 [3] was 8.4 ± 0.9 µM and the IC50 [4] was 4.5 ± 0.9 µM. It also gave an IC50 [5] of 57 ± 6 µM and an EC50 (PDI A1) of 500 nM.
`CCCc1ccc(S(=O)(=O)N2CC2C(=O)OC)cc1` (stereo not shown) [Compound C-3299, Methyl 1-(4-propylphenyl)sulfonylaziridine-2-carboxylate] showed an EC50 (PDI A1) of 800 nM.
In the case of `COC(=O)[C@H]1CN1S(=O)(=O)c1ccc(C)cc1` (stereo partly drawn) [Compound C-3539, Methyl (2R)-1-(p-tolylsulfonyl)aziridine-2-carboxylate], the IC50 [2] is reported as 113 ± 6 µM, the IC50 [3] is reported as 40 ± 5 µM and the IC50 [4] is reported as 20 ± 1 µM. It also gave an IC50 [5] of 23 ± 1 µM and an EC50 (PDI A1) of 29000 nM.
In the case of `COC(=O)C1CN1S(=O)(=O)c1ccc(-c2ccccc2)cc1` (stereo not shown) [Compound C-3291, Methyl 1-(4-phenylphenyl)sulfonylaziridine-2-carboxylate], the EC50 (PDI A1) is reported as 400 nM.
For `CN(C)C(=O)C1CN1S(=O)(=O)c1ccc(N(C)C)cc1` (stereo not shown) [Compound C-3357, 1-[4-(Dimethylamino)phenyl] sulfonyl-N,N-dimethyl-aziridine-2-carboxamide], the IC50 [2] was 295 ± 9 µM, the IC50 [3] was 25 ± 6 µM and the IC50 [4] was 30 ± 1 µM. It also gave an IC50 [5] of 61 ± 3 µM.
With `CN(C)C(=O)C1CN1S(=O)(=O)c1cccc2cc(N(C)C)ccc12` (stereo not shown) [Compound C-3377, 1-[[6-(Dimethylamino)-1-naphthyl]sulfonyl]-N,N-dimethylaziridine-2-carboxamide] the IC50 [2] was 4.8 ± 0.1 µM.
`Cc1ccc(S(=O)(=O)N2CC2C(N)=O)cc1` (stereo not shown) [Compound C-3220, 1-(p-Tolylsulfonyl)aziridine-2-carboxamide] gave an EC50 (PDI A1) greater than 200000 nM.
For `CCCCCc1ccc(S(=O)(=O)N2CC2C(=O)OC)cc1` (stereo not shown) [Compound C-3281, Methyl 1-(4-pentylphenyl)sulfonylaziridine-2-carboxylate], the “Effect on tumour volume” value [1] was “diminished tumour volume” and the “Effect on animal weight” value [1] was “did not modified animal weight”.
`Cc1ccc(S(=O)(=O)N2CC2C(=O)O)cc1` (stereo not shown) [Compound C-3612, Lithium 1-tosylaziridine-2-carboxylate] was tested, and the EC50 (PDI A1) was 54400 nM.
Work on `COC(=O)C1CN1S(=O)(=O)c1ccc2cc(N(C)C)ccc2c1` (stereo not shown) [Compound C-3397, Methyl 1-[[6-(dimethylamino)-2-naphthyl]sulfonyl]aziridine-2-carboxylate] yielded an IC50 [3] of 38 ± 2 µM.
For `COC(=O)C1CN1S(=O)(=O)c1cccc2ccccc12` (stereo not shown) [Compound C-3311, Methyl 1-(1-naphthylsulfonyl)aziridine-2-carboxylate], the EC50 (PDI A1) was 5000 nM.
Work on `CCCCCCCc1ccc(S(=O)(=O)N2CC2C(=O)OC)cc1` (stereo not shown) [Compound C-3288, Methyl 1-(4-heptylphenyl)sulfonylaziridine-2-carboxylate] yielded an EC50 (PDI A1) of 400 nM.
`COC(=O)C1CN1S(=O)(=O)c1ccc(C(C)(C)C)cc1` (stereo not shown) [Compound C-3290, Methyl 1-(4-tert-butylphenyl)sulfonylaziridine-2-carboxylate] was tested, and the IC50 [2] was 29 ± 4 µM and the EC50 (PDI A1) was 400 nM.
Work on `CCCCCCc1ccc(S(=O)(=O)N2CC2C(=O)N2CCOCC2)cc1` (stereo not shown) [Compound C-3517, [1-(4-Hexylphenyl)sulfonylaziridin-2-yl]-morpholino-methanone] yielded an IC50 [3] of 12 ± 1 µM.
With `CCCCCCc1ccc(S(=O)(=O)N2CC2C(=O)N(C)C)cc1` (stereo not shown) [Compound C-3369, 1-(4-Hexylphenyl)sulfonyl-N,N-dimethyl-aziridine-2-carboxamide] the EC50 (PDI A1) was 40 nM.
`CN(C)C(=O)C1CN1S(=O)(=O)c1ccc(F)cc1F` (stereo not shown) [Compound C-3403, 1-(2,4-Difluorophenyl)sulfonyl-N,N-dimethyl-aziridine-2-carboxamide] was tested, and the EC50 (PDI A1) was 12300 nM.
